Data set [1] in a line: Eye irritation test of Epi-1 in rabbits. The following applies: for Reversibility: 7 days then recovery. The procedure:
This study used healthy young adults of the New Zealand white albino rabbit breed. […] The eyes were examined on days 1, 3, 5, and 7, and then allowed to recover until day 14; at this time, clinical observation scores were recorded, and grades assigned for ocular reactions observed during each examination.

The nature of a further data set: Dermal toxicity of TP4. The data set is classed as in vivo, C3H/HeN mice. The following applies: mice, 48 h post-exposure, 125 mg/kg TP4 or 20% SDS (FIG. 17B). The procedure: TP4 (125 mg/kg) was applied onto the mouse skin (topical).
Data set [2] can be described thus: Eye irritation test of TP4 in New Zealand White rabbits. The data set is classed as in vivo. The conditions noted are these: for Abnormality iris, grading / Chemosis, grading / Conjunctivae redness, grading / Corneal opacity, grading: rabbits, OECD 405 grading. On the procedure: Healthy young adults rabbit eyes were treated with TP4, PBS (vehicle control), or 0.1% SDS (positive control). […] […] Clinical signs were recorded during the test period, and grades were assigned for ocular reactions during examination.

For data set [3], the system named is H. pylori. In words: Transmission electron microscopy (Epi-1). Type of data set: cell-based, Helicobacter pylori. On the procedure: Transmission electron microscopy was used to examine Epi-1 induced morphological changes of H. pylori. The samples were fixed and processed as previously described. All samples were examined with an FEI Tecnai G2 F20 S-TWIN transmission electron microscope (FEI Company, Hillsboro, Oreg.) operating at an accelerating voltage of 80 kV. Images were recorded with a charge-coupled device camera at various magnifications.

Data set [4] has as its system resistant clinical isolate CI-HC-028. The experiment in a line: Time-based susceptibility of resistant isolate to TP4 and antibiotics. Type of data set: cell-based, Helicobacter pylori. The following applies: CI-HC-028, at MIC. The procedure: (§1) TP4 peptide solutions (100 μl) at concentrations corresponding to ¼, ½, 1, 2, and 4 fold the MIC were prepared and added to an equal volume of solution containing H. pylori counts of approximately 10^7 CFU mL-1 onto a microtitre plate. The plates were incubated at 37° C., and samples were collected at 1, 3, 6, 12, and 24 h and plated with appropriate dilutions onto blood agar plates; bacterial counts were enumerated and expressed as mean log (CFU mL-1) with standard error.
The bactericidal activities of TP4 and conventional antibiotics against resistant clinical isolate CI-HC-028 were compared. Certain resistant strains of H. pylori was previously reported to be resistant to metronidazole and clarithromycin 27. […] Thus, there is no correlation between multidrug resistant (MDR) phenotype and vulnerability to TP4.

In data set [5] the test system is H. pylori. In words: Development of drug resistance on passage at sub-inhibitory doses. The data set is classed as cell-based, Helicobacter pylori. The following applies: passages at sub-inhibitory doses in vitro. An excerpt: A major driver of drug resistance development is inappropriate antibiotic use and poor compliance with therapeutic regimens. 28 Here, we established a model for simulating conditions of drug resistance emergence: bacteria were exposed to sub-inhibitory doses of antibiotics (AMOX, CLRN, METZ), or peptide TP4 in vitro (see supplementary material methods).

For data set [6], the system named is H. pylori. The experiment in a line: Transmission electron microscopy (TP4). The following applies: 2 h post exposure. The data set is classed as cell-based, Helicobacter pylori. On the procedure:
Transmission electron microscopy (TEM) was used to examine the TP4 mechanism of action on H. pylori, overall cell morphology, TP4 translocation into H. pylori, and interaction of TP4 with internal targets. H. pylori overnight cultures from BHI-blood agar plates were collected, and 0.1 OD inocula were incubated with TP4, Amoxicillin, and/or PBS (PBS only: negative control). […] The cells were then fixed and processed for TEM using previously described methods, with some modifications. Briefly, cells were dehydrated in a graduated series of ethanol, followed by resin polymerization at 65° C. for 3 days. An EM ultramicrotome was used to slice thin sections of 70- to 80-nm thickness from the polymerized blocks, which were then loaded on 400-mesh copper grids. The sections were post stained with 2% uranyl acetate for 15 min and then lead citrate for 5 min, before being mounted for observation using an FEI Tecnai G2 F20 S-TWIN transmission electron microscope (FEI Company, Hillsboro, Oreg.) operating at 80 keV. […] Each grid was scrutinized with the same settings. Images were recorded with a 4MP SPOT Insight charge-coupled-device (CCD) camera.

A further data set deals with H. pylori ATCC 43504. The data set is classed as cell-based, Helicobacter pylori. The procedure: (§2) H. pylori cells undergoing exponential growth were suspended in sterile phosphate-buffered saline (PBS), and adjusted to 0.05 OD using BHI broth; the inoculum was dispensed onto a microtitre plate. Peptide TP4 was prepared at various concentrations (0.04 to 50 μg mL-1) using PBS. Antibiotic resistant clinical isolate CI-HC-028 and three reference strains were used for susceptibility testing. The MIC was defined as the lowest concentration of the drug at which there was no visible growth. For quality control and comparative analyses, the susceptibility of all four H. pylori strains to the antibiotics amoxicillin, clarithromycin, and metronidazole were also examined.

The next data set has as its system H. pylori ATCC 43629. Type of data set: cell-based, Helicobacter pylori. On the procedure:
as §2

The next data set has as its system H. pylori ATCC 700392. Type of data set: cell-based, Helicobacter pylori. The procedure:
as §2

Data set [7] concerns H. pylori clinical isolate CI-HC-028. The experiment in a line: Anti-H. pylori assessment in vitro (MIC), Example 2. Type of data set: cell-based, Helicobacter pylori. The following applies: NE: No effect. The procedure: as §2
Data set [8] relates to H. pylori. In words: Dose and time-dependent killing by TP4. Type of data set: cell-based, Helicobacter pylori. The following applies: at 2×MIC. The procedure: as §1
The nature of data set [9]: Acute oral toxicity of Epi-1. The conditions noted are these: 125 mg/kg, mice. Type of data set: in vivo. On the procedure: Acute oral toxicity was assessed in mice with 6 animals per group, by single oral administration of Epi-1 at 125 mg/kg body weight. Animals were placed under observation for about 48 hr. The mortality, morbidity rate, and clinical signs were recorded.

A short description of data set [10]: Sub-acute oral toxicity of Epi-1. The data set is classed as in vivo, mice. The procedure: Sub-acute oral toxicity was assessed with over a test period of 14 days in which mice were given 600 μg/mouse/day. During the study period, animals were observed daily for clinical signs and mortality.
The conditions of data set [11]: 2.5 mg applied to skin, daily for 7 days, Balb/c mice.
Protocol: Dermal toxicity was assessed in Balb/c mice, through administering daily doses of Epi-1 (2.5 mg/animal) for 7 days [40, 41]. Animals were kept under observation for a minimum of 48 h. Skin abnormalities were recorded.

Where no end group is shown, it is not given here.

With `CCCCCCCCCCCCOS(=O)(=O)[O-].[Na+]` [SDS, reference compound], in data set [1] (rabbit eye, 7 days), the “Corneal opacity, Grade” value was 2. Besides, in data set [1] (rabbit eye, 7 days), the “Redness of conjunctivae, Grade” value was found to be 1. The Reversibility entry in [1] (rabbit eye) is “No”. For the same compound, the “Iris lesion, Grade” value in data set [1] (rabbit, in vivo) amounted to 0. Also, the “appearance of the skin” value in the data set “Dermal toxicity of TP4” is given as “no obvious lesions were observed”. Also, the ocular appearance result in data set [2] (rabbits treated with 50 mg/kg TP4 or SDS for 7 days, observed daily (FIG. 17A)) was “severe lacrimation, swelling of the eyelids, and elevated blood vessels in conjunctivae”. Besides, the “Abnormality iris, grading” value in [2] (Day 1) is on record as 0; in data set [2] (Day 3), 0; in data set [2] (Day 5), 0; in data set [2] (Day 7), 0; in [2] (Recovery, Day 14), 0. The “Chemosis, grading” value worked out at 1.5 in [2] (Day 1); 1.5 in data set [2] (Day 3); 2 in [2] (Day 5); 2 in data set [2] (Day 7); 1.5 in data set [2] (Recovery, Day 14). For the same compound, the “Conjunctivae redness, grading” value in [2] (Day 1) is 1; in data set [2] (Day 3), 1; in [2] (Day 5) it was 1; in data set [2] (Day 7), 1; in data set [2] (Recovery, Day 14), 0.5. The “Corneal opacity, grading” value is 1 in data set [2] (Day 1); 1 in data set [2] (Day 3); 1 in data set [2] (Day 5); 1 in data set [2] (Day 7); 0.5 in data set [2] (Recovery, Day 14).
`CC1(C)S[C@@H]2[C@H](NC(=O)[C@H](N)c3ccc(O)cc3)C(=O)N2[C@H]1C(=O)O` [amoxicillin]: the “morphology of H. pylori cells (TEM)” value with H. pylori [3] is given as “low percentage of coccoid morphology”. Besides, in data set [4] (within 24 hr), the killing is recorded as 90%. The “drug resistance index (MICp/MICs)” value with H. pylori [5] was “increased slightly after passage 6, and remained constant thereafter”. Moreover, the “ultrastructure of H. pylori cells (TEM)” value with H. pylori [6] was “appeared as ‘ghost’ cells, with loose outer membranes”.
Consider `CC[C@H]1OC(=O)[C@H](C)[C@@H](O[C@H]2C[C@@](C)(OC)[C@@H](O)[C@H](C)O2)[C@H](C)[C@@H](O[C@@H]2O[C@H](C)C[C@H](N(C)C)[C@H]2O)[C@](C)(OC)C[C@@H](C)C(=O)[C@H](C)[C@@H](O)[C@]1(C)O` [clarithromycin], for which the “time taken to 90% reduction” value in data set [4] was more than 24 h. Further, the “drug resistance index (MICp/MICs)” value with H. pylori [5] is on record as “gradually increased from passage 3 to the last passage”.
Regarding `Cc1ncc([N+](=O)[O-])n1CCO` [metronidazole], in data set [4] (24 h), the “course of cell count” value is reported as “initial decrease in cell count, but gradually lost activity”. Moreover, in the data set with H. pylori [5], the “drug resistance index (MICp/MICs)” value was “gradually increased from passage 3 to the last passage”.
Turning to FDWDSVLKGVEGFVRGYF [TP1], the MIC against H. pylori ATCC 43504, in the data set on H. pylori ATCC 43629 and in the data set on H. pylori ATCC 700392 was more than 12 µg/mL each time.
As to “FIHHIIGGLFSAGKAIHRLIRRRRR [TP4, Nile tilapia piscidin 4]”, the MIC (against H. pylori ATCC 43504; in the data set with H. pylori ATCC 43629; against H. pylori ATCC 700392; in [7]) was 1.5 to 3 µg/mL each time. Besides, the “dose dependent effect against H. pylori (killing)” value in the data set with H. pylori [8] is on record as 99.99%.
In the case of FIHHIIGGLFSVGKHIHSLIHGH [TP3], the MIC (in the data set with H. pylori ATCC 43504; in the data set on H. pylori ATCC 43629; against H. pylori ATCC 700392; in [7]) was 8 to 12 µg/mL each time.
For “GFIFHIIKGLFHAGKMIHGLV-NH2 [Epi-1, Epinecidin-1]”, the “clinical abnormalities, morbidity, death” value in data set [9] was “did not induce any clinical abnormalities, morbidity, or death”. The “whole blood biochemistry (GOT, GPT, BUN, CRE, TBIL, UA)” value in data set [10] (after acute and sub-acute oral administration) is recorded as “no significant changes”. Also, in [10] (sub-acute oral, 600 μg/mice), the “clinical abnormalities, morbidity, death” value was “did not induce any clinical abnormalities, morbidity, or death”. Also, the ocular signs result in data set [1] (days 2 and 3, 1 mg/eye/day) is on record as “signs of lacrimation”. Further, in data set [1] (rabbit eye, 7 days), the “Corneal opacity, Grade” value is listed as 0; the “Iris lesion, Grade” value is given as 0; the “Redness of conjunctivae, Grade” value stood at 0.1. In addition, the Reversibility result in [1] (rabbit eye) was “yes”. The “dermal irritation, lesions, clinical signs” value in [11] was “did not cause any irritation, lesions, or clinical signs”.
QLQGKQVSGEVVQKVLQELIQSVAKP [TP5]: the MIC (in the data set with H. pylori ATCC 43504; in the data set on H. pylori ATCC 43629; with H. pylori ATCC 700392; in data set [7]) was more than 12 µg/mL in each case.

By MIC is commonly meant the smallest concentration in the dilution series that meets the test's criterion for growth inhibition.

(Values after patent US9901615B2, “Method for treatment of gastric ulcers” (priority 2015, dated 2018).)
